Read-outs that look alike come from different tables or passages of the source.
Assays:
Dengue-3 H87 = test: Neutral red CPE inhibition assay, Dengue-3 H87 in Huh-7; type: cell-based; details: Dengue virus; Dengue-3 H87, Huh-7, neutral red assay; read-out: EC50 (inhibition of virus-induced CPE)
[1] = tested on: Japanese encephalitis virus SA-14; test: Neutral red CPE inhibition assay, Japanese encephalitis SA-14 in Huh-7; type: cell-based; details: Japanese encephalitis SA-14, Huh-7, neutral red assay, read-out: EC50 (inhibition of virus-induced CPE)
Influenza A and B = test: Antiviral specificity panel, Influenza A and B in MDCK; type: cell-based; details: Influenza A virus, Influenza A and B (RNA), read-out: EC50 (inhibit viral replication 50%)
[2] = Cardiomyocyte assay (CellTiter Glo); type: cell-based; details: human iPS cardiomyocytes
Zika virus MR766 = test: Neutral red CPE inhibition assay, Zika MR766 in Huh-7; type: cell-based; details: Huh-7, read-out: EC50 (inhibition of virus-induced CPE)
[3] = tested on: Respiratory syncytial virus; test: Antiviral specificity panel, respiratory syncytial virus in HEp2; type: cell-based; details: human respiratory syncytial virus, HEp-2, Respiratory syncytial virus (RNA), read-out: EC50 (inhibit viral replication 50%)
DENV2 (clinical isolate) [4] = test: DENV2 clinical isolate CPE inhibition in BHK-21 cells (MTT); type: cell-based, dengue virus
in vivo [5] = details: male, CD-1, mouse, po, 420 mg/kg
[6] = tested on: Eastern equine encephalitis virus; test: microbe, parasite or virus in culture; type: cell-based; details: Huh-7, read-out: EC50 (inhibit viral replication 50%)
[7] = tested on: Yellow Fever virus YFV 17D; test: microbe, parasite or virus in culture; type: cell-based; details: Huh-7, read-out: EC50 (inhibition of virus-induced CPE)
Powassan virus Spooner [8] = test: microbe, parasite or virus in culture; type: cell-based; details: BHK-21, read-out: EC90 (reduce virus yield by 1 log10) (converted)
in vitro [9] = details: human, hamster
Usutu virus TC-508 [10] = test: Neutral red CPE inhibition assay, Usutu TC-508 in Huh-7; type: cell-based; details: Huh-7, read-out: EC50 (inhibition of virus-induced CPE)
flaviviruses [11] = tested on: flaviviruses
[12] = Plasma pharmacokinetics in Sprague Dawley rats after oral AT-752; details: rat, oral AT-752 300 mg/kg, earliest time point measured
flaviviruses [13] = test: microbe, parasite or virus in culture
Dengue-2 New Guinea C [14] = test: microbe, parasite or virus in culture; type: cell-based; details: Huh-7, VYR assay, read-out: EC90 (reduce virus yield by 1 log10) (converted)
in vitro [15] = details: African green monkey
[16] = tested on: Yellow Fever virus YFV 17D; test: microbe, parasite or virus in culture; type: cell-based; details: Huh-7, read-out: EC90 (reduce virus yield by 1 log10) (converted)
Dengue-2 New Guinea C [17] = test: Neutral red CPE inhibition assay, Dengue-2 New Guinea C in Huh-7; type: cell-based; details: Dengue virus, Huh-7, neutral red assay, read-out: EC50 (inhibition of virus-induced CPE)
[18] = Plasma pharmacokinetics in cynomolgus monkeys after oral AT-752; details: monkeys
in vitro [19] = details: dog
Rift Valley fever virus = test: microbe, parasite or virus in culture; type: cell-based; details: Huh-7, read-out: EC50 (inhibit viral replication 50%)
Adenovirus = test: Antiviral specificity panel, Adenovirus in Vero; type: cell-based; details: unidentified adenovirus, Adenovirus (DNA), read-out: EC50 (inhibit viral replication 50%)
in vivo [20] = details: male, cynomolgus, cynomolgus monkey, po, 300 mg/kg
Chikungunya virus = test: Antiviral specificity panel, Chikungunya in Huh-7; type: cell-based; details: Chikungunya (RNA), read-out: EC50 (inhibit viral replication 50%)
[21] = tested on: West Nile virus Kern 515, WNo2; test: Neutral red CPE inhibition assay, West Nile virus in Huh-7; type: cell-based; details: West Nile Kern 515, WNo2, Huh-7, neutral red assay, read-out: EC50 (inhibition of virus-induced CPE)
[22] = mice, 1,000 mg/kg loading then 500 mg/kg BID for 3 days, oral
[23] = tested on: West Nile virus Kern 515, WNo2; test: microbe, parasite or virus in culture; type: cell-based; details: West Nile Kern 515, WNo2, Huh-7, VYR assay, read-out: EC90 (reduce virus yield by 1 log10) (converted)
HCV = test: Antiviral specificity panel, HCV in Huh-7; type: cell-based, hepatitis C virus
Usutu virus TC-508 [24] = test: microbe, parasite or virus in culture; type: cell-based; details: Usutu TC-508, Huh-7, VYR assay, read-out: EC90 (reduce virus yield by 1 log10) (converted)
DENV2 (clinical isolate) [25] = test: DENV2 clinical isolate CPE inhibition in human PBMCs (MTT); type: cell-based, dengue virus
Powassan virus Spooner [26] = test: microbe, parasite or virus in culture; type: cell-based; details: BHK-21, read-out: EC50 (inhibition of virus-induced CPE)
Powassan virus LB [27] = test: microbe, parasite or virus in culture; type: cell-based; details: BHK-21, read-out: EC90 (reduce virus yield by 1 log10) (converted)
Powassan virus LB [28] = test: microbe, parasite or virus in culture; type: cell-based; details: BHK-21, read-out: EC50 (inhibition of virus-induced CPE)
[29] = Cytotoxicity in uninfected BHK-21 cells (MTT, DENV2 study); type: cell-based; details: hamster, BHK-21 without virus, Dengue-2 clinical isolate study, bound = highest concentration tested
BHK-21 cells = details: hamster
Rhinovirus = test: Antiviral specificity panel, Rhinovirus in H1-HeLa; type: cell-based; details: Enterovirus, Rhinovirus (RNA), read-out: EC50 (inhibit viral replication 50%)
HIV-1 = test: Antiviral specificity panel, HIV-1 in CEM-SS; type: cell-based; details: Human immunodeficiency virus 1, HIV-1 (RNA), read-out: EC50 (inhibit viral replication 50%)
Herpes simplex-1 = test: Antiviral specificity panel, Herpes simplex-1 in Vero; type: cell-based; details: Herpes simplex-1 (DNA), read-out: EC50 (inhibit viral replication 50%)
[30] = cynomolgus monkey plasma, 2 μM, 120 min, 37°C
DENV2 D2Y98P = type: in vivo, AG129 mice
[31] = design: dose or concentration left out as unconfirmed; details: rats, doses up to for 14 days; S. S. Good, unpublished data
[32] = Sprague Dawley rat plasma, 10 min of incubation
in vitro [33] = details: Sprague Dawley, rat, plasma
[34] = human plasma, 2 μM, 120 min, 37°C
[35] = monkeys, doses up to 1,000 mg/day for 14 days; S. S. Good, unpublished data

CNc1nc(N)nc2c1ncn2[C@@H]1O[C@H](CO[P@](=O)(N[C@@H](C)C(=O)OC(C)C)Oc2ccccc2)[C@@H](O)[C@@]1(C)F [AT-281]
EC50 (Dengue-3 H87): 0.77 µM | EC50 [1]: 0.21 µM | EC50 (Influenza A and B): > 100 µM | CC50 at 3 days [2]: > 100 µM | EC50 (Zika virus MR766): 0.64 µM | EC50 [3]: > 100 µM | EC50 (DENV2 (clinical isolate) [4]; Dengue virus, DENV2, BHK-21, read-out: EC50 (inhibition of virus-induced CPE), Dengue-2 clinical isolate, BHK-21): 0.63 µM | EC50 (DENV2 (clinical isolate) [4]; read-out: EC50 (inhibition of virus-induced CPE), Dengue-2 clinical isolate, BHK-21): 1.1 µM | AUC(0-t) (in vivo [5]): 4.2 ± 0.5 µM·h | Cmax (in vivo [5]): 2.6 ± 0.3 µM | Tmax (in vivo [5]): 48 ± 18 min | EC50 [6]: 10.2 µM | EC50 [7]: 0.31 µM | EC90 (Powassan virus Spooner [8]): 0.74 µM | CC50 (in vitro [9]): 85 to 170 µM | EC50 (Usutu virus TC-508 [10]): 0.19 µM | SI (CC50/EC50) (flaviviruses [11]): > 210 | cytotoxicity (flaviviruses [11]): Little to no cytotoxicity | plasma concentration at 1 h [12]: below the limit of quantitation | EC50 (flaviviruses [13]; Dengue virus, DENV2 / DENV3, read-out: EC50 values, all other flaviviruses tested): 0.19 to 1.41 µM | EC50 (flaviviruses [13]; Orthoflavivirus, in Homo sapiens, 144 h, read-out: EC50 of the virus-induced cytopathic effect (CPE), range over Table 1): 0.21 to 1.41 µM | EC90 (Dengue-2 New Guinea C [14]): 0.64 µM | CC50 (in vitro [15]): > 100 µM | EC90 [16]: 0.26 µM | EC50 (Dengue-2 New Guinea C [17]): 0.48 µM | time present in plasma ([18]; oral AT-752 300 mg/kg): more than 4 h | CC50 (in vitro [19]): > 100 µM | EC50 (Rift Valley fever virus): > 100 µM | EC50 (Adenovirus): > 100 µM | AUC(0-t) (in vivo [20]): 9.5 ± 3.7 µM·h | Cmax (in vivo [20]): 3.7 ± 1.5 µM | Tmax (in vivo [20]): 60 min | EC50 (Chikungunya virus): 54.2 µM | EC50 [21]: 1.41 µM | tolerability (adverse clinical signs) [22]: well tolerated | EC90 [23]: 0.43 µM | selectivity toward HCV (HCV): > 2,000 | EC50 (HCV; Hepatitis C virus, HCV (RNA), read-out: EC50 (inhibit viral replication 50%)): 0.05 µM | EC90 (Usutu virus TC-508 [24]): 0.72 µM | EC50 (DENV2 (clinical isolate) [25]; Dengue virus, DENV2, PBMC, read-out: EC50 (inhibition of virus-induced CPE), Dengue-2 clinical isolate, human PBMC): 0.6 µM | EC50 (DENV2 (clinical isolate) [25]; read-out: EC50 (inhibition of virus-induced CPE), Dengue-2 clinical isolate, human PBMC): 0.8 µM | EC50 (Powassan virus Spooner [26]): 0.29 µM | EC90 (Powassan virus LB [27]): 2.6 µM | EC50 (Powassan virus LB [28]): 0.64 µM | CC50 at 3 days [29]: > 170 µM | CC50 (BHK-21 cells): > 170 µM | EC50 (Rhinovirus): > 100 µM | EC50 (HIV-1): > 100 µM | EC50 (Herpes simplex-1): > 100 µM

CNc1nc(N)nc2c1ncn2[C@@H]1O[C@H](CO[P@](=O)(N[C@@H](C)C(=O)OC(C)C)Oc2ccccc2)[C@@H](O)[C@@]1(C)F [AT-752]
% of starting concentration remaining [30]: 98.2% | viremia vs vehicle, day 6 pi (DENV2 D2Y98P; AG129 mice, oral 1,000 mg/kg loading 4 h before challenge then 500 mg/kg BID 7 days, P = 0.000014): significantly lower | viremia vs control, day 4 pi (DENV2 D2Y98P; same regimen): did not demonstrate a difference in viremia | survival vs vehicle (Kaplan-Meier) (DENV2 D2Y98P; same regimen, P = 0.0004, Mantel-Cox log rank test): significantly improved the survival | health scores vs vehicle (DENV2 D2Y98P; same regimen, day 4 to day 9 pi, P < 0.001): significantly better health scores | weight loss vs vehicle (DENV2 D2Y98P; same regimen, days 5, 7 and 8 pi, P < 0.001): significantly reduced weight loss | spleen viral load vs control by day 7 pi (DENV2 D2Y98P; same regimen, reduced compared to control): not statistically different | viremia by day 8 pi (DENV2 D2Y98P; same regimen, virus still measurable in all surviving controls, P = 0.0045): cleared in all treated animals | safety findings [31]: no safety concerns | drug remaining at first time point [32]: no drug remaining | unusual or adverse clinical signs after dosing ([18]; oral AT-752 300 mg/kg or 60 mg/kg, observed before and after dosing and at blood collections): no such signs noted | half-life (in vitro [33]): < 3 min | % of starting concentration remaining [34]: 93.5% | safety findings [35]: no safety concerns
